Data from patent US20240075050A1, “Methods and Compositions for Treating Leucine Rich Repeat Kinase 2 (LRRK2)-Associated Disorder or Condition” (University of Connecticut, priority 2022, published 2024).

Tests used:
[1] = tested on: mouse primary cortical neurons; test: Primary neuronal viability assay, LRRK2-induced neuronal toxicity; format: cell-based; conditions: 1 mM AICAr
Experimental: Primary neuronal cultures and viability assay. Primary cortical neuronal cultures were prepared from embryonic day 15-16 CD1 fetal mice (Charles River)^1. Briefly, cortices were dissected and dissociated by Trypsin (Invitrogen). The cells were seeded into 24-well plates pre-coated with poly-L-ornithine (Sigma) and were maintained in Neurobasal medium (Gibco) supplemented with B27 supplement (Gibco) and L-glutamine. The glial cells were inhibited by adding 5-fluoro-20-deoxyuridine (5F2DU, 30 μM, Sigma) at days in vitro (DIV) 4. To assess ATIC in LRRK2-induced toxicity, neurons were first infected with lentiviruses of ATIC-shRNA #6 or control-shRNA at DIV 3, and MYC-LRRK2, […] were co-transfected at a plasmid ratio of 10:1 into neurons at DIV 5 using Lipofectamine 2000 reagent (Invitrogen). […] Fixed cells are washed with PBS, permeabilized and blocked for 1 hour with PBS containing 5% goat serum and 0.3% Triton X-100, then detected with rabbit anti-GFP antibody followed by AlexaFluor-488 anti-rabbit IgG antibody. […] For each independent experiment, the percent viability of GFP-positive neurons (n>100) was determined and normalized to the control neurons transfected with pEGFP-N1 plus pcDNA3.1 empty vector.

GBA mRNA = GBA mRNA levels by real-time PCR in SH-SY5Y cells; format: cell-based, human; conditions: 2 mM, 24 hours
Experimental: Real-Time PCR (qPCR). SH-SY5Y WT or AUF1-KO cells were treated with or without 2 mM AICAr for 24 hours, and total RNA was extracted from 3×10^5 cells of each treatment using TRIzol™ Reagent (Invitrogen) as per the manufacturer's introductions. Real-Time PCR (qPCR) assay was performed using GoTaq® 2-Step RT-PCR System (Promega) as per the manufacturer's introductions. Briefly, total cDNA was reversely transcribed from RNA pools (1.5 μg RNA in a 10 μl reaction mixture) using random primers. The qPCR reaction was run in CFX96 qPCR detection system (Bio-Rad) with 3 μl cDNA (1:20 dilution) in a 10 μl reaction mixture (Table 3), and set at 95° C. for 2 minutes followed by 40 amplification cycles of 95° C. for 15 seconds, 60° C. for 1 min with a melting curve, 95° C. for 15 seconds, 60° C. for 1 min, a ramp from 60° C. to 95° C. at an 1% rate, and 95° C. for 15 seconds. Melt curves were monitored to assess qPCR amplicons, and critical threshold (Ct) values were collected with an enclosed software. Relative gene expression was analyzed by normalization against Ct values of f-ACTIN (housekeeping gene) and then determined by comparison with expression levels of control sample using the relative expression index (2-ΔΔCt) method.

CD68 = test: LPS-induced neuroinflammation in mice, CD68 levels; format: in vivo, mouse; conditions: 21 days; for LPS-induced CD68 levels in SNpc: AICAr 2.4 μg/day/animal, immunostaining
Experimental: FIGS. 9A-9F depict that AICAr rescues LPS-induced DA neurodegeneration and inflammation in mice, which acts through LRRK2. FIG. 9A depicts representative images of DAneuron staining. WT and LRRK-KO mice were injected with 1 ul LPS (5 ug/animal) or phosphate buffered saline (PBS) into the substantia nigra pars compacta (SNpc) and administrated with AICAr (2.4 μg/day/animal) or saline to same stereotaxic coordinates using osmotic pumps. After 21 days of injection, DA neurons were stained by anti-tyrosine hydroxylase (TH) antibody. Scale bars, […]. FIG. 9B depicts quantification of TH positive neurons in substantia nigra pars compacta (SNpc) using an unbiased stereological method with stereo investigator software from 7-8 animals per group. FIG. 9C depicts quantification of Niss1-positive neurons in SNpc using an unbiased stereological method with stereo investigator software from 7-8 animals per group. FIG. 9D depicts the CD68 levels in SNpc tissues near the needle sites analyzed by immunostaining. Scale bars, 100 μm. FIG. 9E depicts the CD68 levels in WT and LRRK-KO mice injected with 1 μl LPS (5 μg/animal) or PBS into striatum followed by administration of AICAr (2.4 μg/day/animal) or saline to same stereotaxic coordinates using osmotic pumps. After 21 days of injection, LRRK2 and CD68 expression in striatal tissues near the needle sites was analyzed by Western blot. FIG. 9F depicts quantification of images from (FIG. 9E) using ImageJ software, n=3 animals per group. Data information: Data are mean±SEM. ***p<0.001, ****p<0.0001 by one-way ANOVA followed by a Tukey's post hoc test. ns: not statistically significant.
Stereotaxic intracranial injection. […]
Immunohistochemistry. […] After antigen retrieval with 10 mM sodium citrate (pH 6.0) and 0.05% Tween-20 at 37° C. for 30 minutes, brain sections were washed in PBS for three times, permeabilized with 0.3% Triton X-100 in PBS, blocked with 10% goat serum in PBS, incubated with anti-tyrosine hydroxylase (TH) antibody overnight at 4° C., and then detected with Biotin-SP goat anti-rabbit IgG antibody at room temperature for 2 hours. […]

How did the “LRRK2 GS mutant induced neuronal toxicity” value ([1]; mouse primary neurons transfected with MYC-LRRK2 G2019S and eGFP) turn out when NC(=O)c1ncn([C@@H]2O[C@H](CO)[C@@H](O)[C@H]2O)c1N [AICAr, 5-aminoimidazole-4-carboxamide riboside] was run?
Its value is “significantly rescued”.

What about the “overexpression of LRRK2-WT induced neuronal toxicity” value ([1]; mouse primary neurons transfected with MYC-LRRK2 WT and eGFP) of the same compound?
The value was “significantly rescued”.

And the “GBA mRNA levels” value (GBA mRNA)?
The value was “no changes”.

And the “LPS-induced CD68 levels in SNpc” value (CD68; LRRK2 KO mice)?
Its value is “did not significantly rescue”.

What about the “CD68 levels stimulated by LPS in striatum” value (CD68; WT mice, AICAr 2.4 μg/day/animal into striatum, Western blot) of the same compound?
Its value is “significantly reduced”.

What about the “LPS-induced CD68 levels in SNpc” value (CD68; WT mice) of the same compound?
The value was “significantly reduced”.
